Test systems include 786-0 renal; KM12 colon; OVCAR-3 ovarian; K-562 leukemia; MCF7 breast; NCI-H23 lung; M14 melanoma; MDA-N; T-47D breast; NCI-H460 lung; RPMI-8226 leukemia.
Common to all, as to experiment: NCI anticancer screen, dose series, 48 h

Each structure is given as a SMILES string.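 Cultured in 96-well plates, cells were exposed to test compound for 48 hours across five concentrations. TGI is the concentration that stops growth completely.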

As for `COC(=O)C12CCC(C(=O)OC)(Cc3c(c4ccccc4n3S(=O)(=O)c3ccccc3)C1)C2=O` (centres undefined), the TGI in the assay with 786-0 renal was greater than 69.6 µM; in the assay with KM12 colon it was greater than 100 µM; with OVCAR-3 ovarian it was greater than 100 µM; with K-562 leukemia, greater than 100 µM; with MCF7 breast it was greater than 100 µM; with NCI-H23 lung, greater than 100 µM. The TGI with M14 melanoma, in the assay on MDA-N, with T-47D breast, with NCI-H460 lung and in the assay on RPMI-8226 leukemia was greater than 100 µM throughout.

For the compound `CC(C)(C)OC(=O)N1C(C2=COc3ccccc3O2)=COc2ccccc21`, the TGI with 786-0 renal was greater than 100 µM; in the assay with KM12 colon, greater than 100 µM; in the assay with OVCAR-3 ovarian it was 47.2 µM; in the assay on K-562 leukemia, 57 µM; with MCF7 breast, 60.2 µM; in the assay with NCI-H23 lung it was 95.1 µM. Besides, the TGI with M14 melanoma is greater than 100 µM; in the assay on MDA-N it was greater than 100 µM; in the assay on T-47D breast, 50.4 µM; in the assay on NCI-H460 lung, greater than 100 µM; in the assay on RPMI-8226 leukemia, 43.5 µM.

Consider `CN1CCc2c(sc3nc(Nc4ccccc4)n(N)c(=O)c23)C1`, for which the TGI in the assay on 786-0 renal, in the assay on KM12 colon, with OVCAR-3 ovarian, with K-562 leukemia, with MCF7 breast and with NCI-H23 lung was greater than 100 µM throughout. Moreover, the TGI with M14 melanoma is 88 µM; in the assay with MDA-N, greater than 100 µM; in the assay on T-47D breast, greater than 100 µM; in the assay with NCI-H460 lung, greater than 100 µM; in the assay on RPMI-8226 leukemia, greater than 100 µM.

In the case of `O=c1oc2ncccc2n1Cc1ccc([N+](=O)[O-])cc1`, the TGI in the assay on 786-0 renal, in the assay on KM12 colon, in the assay on OVCAR-3 ovarian, with K-562 leukemia, with MCF7 breast and with NCI-H23 lung was greater than 100 µM in each case. In addition, the TGI with M14 melanoma, with MDA-N, in the assay with T-47D breast, with NCI-H460 lung and in the assay on RPMI-8226 leukemia was greater than 100 µM throughout.

`CC(C)OP(=O)(OC(C)C)C(C(F)(F)F)C(F)(F)F`: the TGI in the assay on 786-0 renal, with KM12 colon, in the assay with OVCAR-3 ovarian, with K-562 leukemia, with MCF7 breast and in the assay on NCI-H23 lung was greater than 100 µM each time. Also, the TGI with M14 melanoma, with MDA-N, in the assay with T-47D breast and with RPMI-8226 leukemia was greater than 100 µM in each case.

As for `CN1CN(c2ccccc2)C2(CCNCC2)C1=O`, the TGI with 786-0 renal, in the assay with KM12 colon, with OVCAR-3 ovarian, in the assay on K-562 leukemia, in the assay on MCF7 breast and in the assay with NCI-H23 lung was greater than 100 µM each time. The TGI in the assay with M14 melanoma, in the assay with MDA-N, in the assay with T-47D breast, with NCI-H460 lung and in the assay on RPMI-8226 leukemia was greater than 100 µM in each case.

Turning to `CN(Cc1cnc2nc(N)nc(N)c2n1)c1ccc(C(=O)NC(CCS(=O)(=O)O)C(=O)O)cc1` (centres undefined), the TGI in the assay on KM12 colon, in the assay with OVCAR-3 ovarian, with MCF7 breast, in the assay with NCI-H23 lung, with M14 melanoma and in the assay on MDA-N was greater than 100 µM throughout. The TGI is greater than 100 µM with T-47D breast, greater than 31.6 µM with NCI-H460 lung and greater than 100 µM in the assay on RPMI-8226 leukemia.

In the case of `CCCCC1Cc2cc(O)ccc2-c2n1c1cc(O)ccc1[n+]2C` (centres undefined) (tested in a mixture with another compound), the TGI in the assay with 786-0 renal is greater than 100 µM; in the assay with KM12 colon, greater than 100 µM; in the assay with OVCAR-3 ovarian it was 98.7 µM; in the assay on K-562 leukemia, greater than 100 µM; in the assay on MCF7 breast it was greater than 72.7 µM; in the assay with NCI-H23 lung it was greater than 76.2 µM. Further, the TGI in the assay on M14 melanoma was greater than 100 µM; with MDA-N, greater than 100 µM; with T-47D breast, greater than 100 µM; in the assay with NCI-H460 lung, greater than 100 µM; in the assay on RPMI-8226 leukemia it was 75.1 µM.

In the case of `C=C1c2nc3ccccc3n2C=C(c2ccc(Cl)cc2)N1c1ccc(OCCN2CCOCC2)cc1`, the TGI in the assay with 786-0 renal, with KM12 colon, with OVCAR-3 ovarian, in the assay on K-562 leukemia, in the assay on MCF7 breast and in the assay on NCI-H23 lung was greater than 100 µM throughout. Also, the TGI is 58.8 µM with M14 melanoma; greater than 100 µM in the assay with MDA-N; greater than 100 µM in the assay with T-47D breast; greater than 100 µM with NCI-H460 lung; 10.9 µM in the assay on RPMI-8226 leukemia.

On to `Cc1csc2c(P(=O)(OC(C)C)OC(C)C)c(-c3ccccc3)cn12`, for which the TGI was found to be 30.7 µM in the assay on 786-0 renal; 30.6 µM in the assay on KM12 colon; 28.2 µM in the assay on OVCAR-3 ovarian; 45.7 µM in the assay on K-562 leukemia; 34.3 µM with MCF7 breast; 37.9 µM in the assay on NCI-H23 lung. Further, the TGI with M14 melanoma came out at 34.7 µM; in the assay with MDA-N, 32.5 µM; in the assay with T-47D breast it was 16.2 µM; with NCI-H460 lung it was 30.1 µM; in the assay on RPMI-8226 leukemia, 40.7 µM.

For `O=[N+]([O-])c1cc2n[nH]nc2c2nonc12`, the TGI with 786-0 renal is greater than 100 µM; with KM12 colon, greater than 100 µM; in the assay with OVCAR-3 ovarian it was 95.1 µM; in the assay with K-562 leukemia, greater than 100 µM; with MCF7 breast it was 21.5 µM; with NCI-H23 lung it was 83.3 µM. Besides, the TGI with M14 melanoma was 47.4 µM; in the assay with MDA-N it was 80.5 µM; in the assay with T-47D breast, greater than 100 µM; in the assay with NCI-H460 lung it was greater than 100 µM; in the assay on RPMI-8226 leukemia, greater than 100 µM.

For `CN(c1c(Cl)cccc1Cl)S(=O)(=O)c1ccccc1[N+](=O)[O-]`, the TGI with 786-0 renal, in the assay with KM12 colon, in the assay with OVCAR-3 ovarian, with MCF7 breast, with NCI-H23 lung and in the assay on M14 melanoma was greater than 100 µM in each case. In addition, the TGI in the assay on MDA-N, in the assay with T-47D breast, in the assay with NCI-H460 lung and in the assay with RPMI-8226 leukemia was greater than 100 µM in each case.

With `CCOC(=O)c1ccc(N=C2SC(=S)N(c3ccc(F)cc3)C2=Nc2ccc(C(=O)OCC)cc2)cc1`, the TGI in the assay with 786-0 renal was 31.6 µM; with KM12 colon, greater than 71.7 µM; in the assay on OVCAR-3 ovarian, greater than 53.7 µM; in the assay with K-562 leukemia it was 47.3 µM; in the assay with MCF7 breast it was 42.2 µM; in the assay on NCI-H23 lung, 44.2 µM. In addition, the TGI is 25.6 µM with M14 melanoma; 35.4 µM in the assay on MDA-N; 22.7 µM in the assay on T-47D breast; greater than 100 µM in the assay on NCI-H460 lung; 51.3 µM in the assay on RPMI-8226 leukemia.

For the origin of these results see PubChem BioAssay (NCI).
